Key:
[1] = target: 5-hydroxytryptamine receptor 5A (Homo sapiens) (UniProt P47898); conditions: Compound concentration 10.0 uM
[2] = target: Polyunsaturated fatty acid lipoxygenase ALOX15 (Oryctolagus cuniculus) (UniProt P12530); conditions: Compound concentration 10.0 uM
[3] = target: Serotonin 2 (5-HT2) receptor (Rattus norvegicus) (UniProt P30994+P08909+P14842); conditions: Compound concentration 10.0 uM
[4] = target: T1, 5-hydroxytryptamine receptor 3A (Homo sapiens) (UniProt P46098); conditions: Compound concentration 10.0 uM
T1 sequence (whole entry): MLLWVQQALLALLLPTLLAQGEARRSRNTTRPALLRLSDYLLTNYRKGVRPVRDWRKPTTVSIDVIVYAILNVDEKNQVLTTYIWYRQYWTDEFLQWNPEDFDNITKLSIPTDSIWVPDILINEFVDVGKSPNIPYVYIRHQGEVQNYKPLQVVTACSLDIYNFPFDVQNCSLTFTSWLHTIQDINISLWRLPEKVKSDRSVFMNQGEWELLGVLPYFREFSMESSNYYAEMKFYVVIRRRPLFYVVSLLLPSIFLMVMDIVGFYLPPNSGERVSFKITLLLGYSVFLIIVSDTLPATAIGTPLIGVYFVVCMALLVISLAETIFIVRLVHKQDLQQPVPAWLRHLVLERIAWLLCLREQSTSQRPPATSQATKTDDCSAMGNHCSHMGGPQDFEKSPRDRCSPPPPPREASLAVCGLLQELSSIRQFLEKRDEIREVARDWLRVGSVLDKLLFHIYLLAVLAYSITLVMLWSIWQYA

[5] = target: 5-hydroxytryptamine receptor 4 (Cavia porcellus) (UniProt O70528); conditions: Compound concentration 10.0 uM
[6] = target: Sodium-dependent serotonin transporter (Homo sapiens) (UniProt P31645); conditions: Compound concentration 10.0 uM
[7] = target: Polyunsaturated fatty acid 5-lipoxygenase (Homo sapiens) (UniProt P09917); conditions: Compound concentration 10.0 uM
[8] = target: Acetylcholinesterase (Homo sapiens) (UniProt P22303); conditions: Compound concentration 10.0 uM
[9] = target: Angiotensin-converting enzyme (Oryctolagus cuniculus) (UniProt P12822); conditions: Compound concentration 10.0 uM
[10] = target: Type-1 angiotensin II receptor (Oryctolagus cuniculus) (UniProt P34976); conditions: Homo sapiens; Compound concentration 10.0 uM
[11] = target: Sodium/potassium-transporting ATPase subunit alpha-1 (Sus scrofa) (UniProt P05024); conditions: Compound concentration 10.0 uM
[12] = target: Beta-1 adrenergic receptor (Homo sapiens) (UniProt P08588); conditions: Compound concentration 10.0 uM
[13] = target: Beta-2 adrenergic receptor (Rattus norvegicus) (UniProt P10608); conditions: Compound concentration 10.0 uM
[14] = target: Voltage-dependent N-type calcium channel subunit alpha-1B (Rattus norvegicus) (UniProt Q02294); conditions: Compound concentration 10.0 uM
[15] = target: Carbonic anhydrase 6 (Homo sapiens) (UniProt P23280); conditions: Compound concentration 10.0 uM
[16] = target: D(1A) dopamine receptor (Homo sapiens) (UniProt P21728); conditions: Compound concentration 10.0 uM
[17] = target: Sodium-dependent dopamine transporter (Homo sapiens) (UniProt Q01959); conditions: Compound concentration 10.0 uM
[18] = target: Neutrophil elastase (Homo sapiens) (UniProt P08246); conditions: Compound concentration 10.0 uM
[19] = target: Nitric oxide synthase 3 (Bos taurus) (UniProt P29473); conditions: Compound concentration 10.0 uM
[20] = target: Gamma-aminobutyric acid receptor subunit beta-1 (Homo sapiens) (UniProt P18505); conditions: Rattus norvegicus; Compound concentration 10.0 uM
[21] = target: Glutamate receptor ionotropic, NMDA 1 (Rattus norvegicus) (UniProt P35439); conditions: Compound concentration 10.0 uM
[22] = target: Potassium voltage-gated channel subfamily A member 1 (Rattus norvegicus) (UniProt P10499); conditions: Compound concentration 10.0 uM
[23] = target: Calpain-1 catalytic subunit (Homo sapiens) (UniProt P07384); conditions: Compound concentration 10.0 uM
[24] = target: Muscarinic acetylcholine receptor (Rattus norvegicus) (UniProt P08482+P08483+P08485+P08911+P10980); conditions: Compound concentration 10.0 uM
[25] = target: Sodium-dependent noradrenaline transporter (Homo sapiens) (UniProt P23975); conditions: Compound concentration 10.0 uM
[26] = target: Platelet-activating factor receptor (Homo sapiens) (UniProt P25105); conditions: Compound concentration 10.0 uM
[27] = target: 3',5'-cyclic-AMP phosphodiesterase 4A (Homo sapiens) (UniProt P27815); conditions: Compound concentration 10.0 uM
[28] = target: Interstitial collagenase (Homo sapiens) (UniProt P03956); conditions: Compound concentration 10.0 uM
[29] = target: Sigma receptor (Homo sapiens) (UniProt Q99720+Q5BJF2); conditions: Cavia porcellus; Compound concentration 10.0 uM
[30] = target: Androgen receptor (Rattus norvegicus) (UniProt P15207); conditions: Compound concentration 10.0 uM
[31] = target: Thromboxane-A synthase (Homo sapiens) (UniProt P24557); conditions: Compound concentration 10.0 uM
[32] = target: D(1A) dopamine receptor (Homo sapiens) (UniProt P21728); conditions: Compound concentration 10.0 uM; remark: listed apart in the source
[33] = target: D(2) dopamine receptor (Homo sapiens) (UniProt P14416); conditions: Compound concentration 10.0 uM
[34] = target: Beta-1 adrenergic receptor (Homo sapiens) (UniProt P08588); conditions: Compound concentration 10.0 uM; remark: listed apart in the source

Sequence of Beta-1 adrenergic receptor (Homo sapiens) (P08588 whole entry, looked up): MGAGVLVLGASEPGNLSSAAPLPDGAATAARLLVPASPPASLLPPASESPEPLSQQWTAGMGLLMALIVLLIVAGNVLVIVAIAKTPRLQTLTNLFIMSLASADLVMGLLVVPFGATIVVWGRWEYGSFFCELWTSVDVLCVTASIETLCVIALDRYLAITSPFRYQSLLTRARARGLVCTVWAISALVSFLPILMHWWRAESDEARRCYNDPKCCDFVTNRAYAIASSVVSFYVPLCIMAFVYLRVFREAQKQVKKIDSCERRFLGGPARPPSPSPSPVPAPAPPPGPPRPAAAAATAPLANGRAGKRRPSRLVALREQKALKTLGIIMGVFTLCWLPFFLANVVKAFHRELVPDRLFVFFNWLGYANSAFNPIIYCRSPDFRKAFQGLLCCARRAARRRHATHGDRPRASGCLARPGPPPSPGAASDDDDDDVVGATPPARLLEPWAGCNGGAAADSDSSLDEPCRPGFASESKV
Sequence of D(1A) dopamine receptor (Homo sapiens) (P21728 whole entry): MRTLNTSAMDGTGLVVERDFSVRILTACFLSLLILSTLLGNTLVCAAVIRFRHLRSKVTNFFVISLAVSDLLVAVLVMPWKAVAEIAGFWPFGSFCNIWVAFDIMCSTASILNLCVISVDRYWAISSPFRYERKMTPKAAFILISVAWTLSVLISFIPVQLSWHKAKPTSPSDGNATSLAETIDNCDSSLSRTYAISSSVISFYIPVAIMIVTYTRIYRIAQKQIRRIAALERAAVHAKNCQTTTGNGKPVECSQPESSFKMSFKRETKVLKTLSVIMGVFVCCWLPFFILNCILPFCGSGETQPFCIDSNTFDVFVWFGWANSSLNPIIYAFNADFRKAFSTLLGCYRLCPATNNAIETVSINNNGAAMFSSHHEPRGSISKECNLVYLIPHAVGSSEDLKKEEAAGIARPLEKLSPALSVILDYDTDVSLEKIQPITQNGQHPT
Sequence of Type-1 angiotensin II receptor (Oryctolagus cuniculus) (P34976 whole entry): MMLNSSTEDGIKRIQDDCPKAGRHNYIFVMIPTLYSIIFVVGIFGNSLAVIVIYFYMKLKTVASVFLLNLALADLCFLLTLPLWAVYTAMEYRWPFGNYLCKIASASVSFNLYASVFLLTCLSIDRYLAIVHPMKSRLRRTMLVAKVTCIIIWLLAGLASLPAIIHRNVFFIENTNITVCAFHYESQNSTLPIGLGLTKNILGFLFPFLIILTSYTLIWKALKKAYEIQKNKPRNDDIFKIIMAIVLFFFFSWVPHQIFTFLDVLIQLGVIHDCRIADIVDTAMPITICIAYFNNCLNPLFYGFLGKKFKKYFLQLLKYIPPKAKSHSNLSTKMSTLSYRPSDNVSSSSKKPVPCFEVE
Sequence of Gamma-aminobutyric acid receptor subunit beta-1 (Homo sapiens) (P18505 whole entry): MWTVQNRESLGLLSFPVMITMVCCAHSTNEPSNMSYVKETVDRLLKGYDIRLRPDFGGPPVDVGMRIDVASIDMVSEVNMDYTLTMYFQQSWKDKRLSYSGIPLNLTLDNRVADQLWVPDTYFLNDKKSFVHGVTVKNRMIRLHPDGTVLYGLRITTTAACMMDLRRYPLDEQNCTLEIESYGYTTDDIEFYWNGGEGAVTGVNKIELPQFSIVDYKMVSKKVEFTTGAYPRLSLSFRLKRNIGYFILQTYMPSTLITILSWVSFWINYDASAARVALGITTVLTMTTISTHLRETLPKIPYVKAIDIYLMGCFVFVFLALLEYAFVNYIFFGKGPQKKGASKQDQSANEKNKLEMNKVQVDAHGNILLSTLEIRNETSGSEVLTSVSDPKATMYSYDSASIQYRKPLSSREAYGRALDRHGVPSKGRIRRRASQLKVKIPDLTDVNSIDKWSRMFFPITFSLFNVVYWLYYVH
Sequence of 5-hydroxytryptamine receptor 5A (Homo sapiens) (P47898 whole entry): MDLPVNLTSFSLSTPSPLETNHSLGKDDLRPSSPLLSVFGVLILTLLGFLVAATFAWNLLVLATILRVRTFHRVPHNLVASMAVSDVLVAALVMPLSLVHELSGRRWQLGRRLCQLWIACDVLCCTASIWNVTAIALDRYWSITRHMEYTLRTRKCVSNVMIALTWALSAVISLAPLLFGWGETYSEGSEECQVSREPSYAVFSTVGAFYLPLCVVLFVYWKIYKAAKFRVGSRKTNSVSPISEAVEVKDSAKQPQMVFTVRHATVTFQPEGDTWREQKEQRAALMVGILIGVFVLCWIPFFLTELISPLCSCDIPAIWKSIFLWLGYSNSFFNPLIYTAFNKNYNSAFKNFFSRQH
Sequence of Polyunsaturated fatty acid 5-lipoxygenase (Homo sapiens) (P09917 whole entry): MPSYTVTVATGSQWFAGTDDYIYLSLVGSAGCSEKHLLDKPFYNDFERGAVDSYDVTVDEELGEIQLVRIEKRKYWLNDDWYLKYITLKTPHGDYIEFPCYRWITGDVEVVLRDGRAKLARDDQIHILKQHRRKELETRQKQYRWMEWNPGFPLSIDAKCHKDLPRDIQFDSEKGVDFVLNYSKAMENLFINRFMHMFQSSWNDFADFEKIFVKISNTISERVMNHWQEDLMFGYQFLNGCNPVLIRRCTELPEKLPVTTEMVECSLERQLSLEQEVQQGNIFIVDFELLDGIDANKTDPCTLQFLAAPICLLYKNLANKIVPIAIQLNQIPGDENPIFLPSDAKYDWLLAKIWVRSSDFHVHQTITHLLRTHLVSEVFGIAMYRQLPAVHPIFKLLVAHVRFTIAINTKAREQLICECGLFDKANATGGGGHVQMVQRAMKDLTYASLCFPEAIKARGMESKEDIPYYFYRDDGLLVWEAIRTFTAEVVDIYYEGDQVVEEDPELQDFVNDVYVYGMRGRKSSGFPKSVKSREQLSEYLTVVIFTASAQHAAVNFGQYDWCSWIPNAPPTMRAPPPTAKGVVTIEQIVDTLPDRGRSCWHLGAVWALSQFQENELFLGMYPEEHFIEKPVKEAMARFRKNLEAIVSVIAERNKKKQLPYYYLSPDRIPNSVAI
Sequence of Androgen receptor (Rattus norvegicus) (P15207 whole entry S389L): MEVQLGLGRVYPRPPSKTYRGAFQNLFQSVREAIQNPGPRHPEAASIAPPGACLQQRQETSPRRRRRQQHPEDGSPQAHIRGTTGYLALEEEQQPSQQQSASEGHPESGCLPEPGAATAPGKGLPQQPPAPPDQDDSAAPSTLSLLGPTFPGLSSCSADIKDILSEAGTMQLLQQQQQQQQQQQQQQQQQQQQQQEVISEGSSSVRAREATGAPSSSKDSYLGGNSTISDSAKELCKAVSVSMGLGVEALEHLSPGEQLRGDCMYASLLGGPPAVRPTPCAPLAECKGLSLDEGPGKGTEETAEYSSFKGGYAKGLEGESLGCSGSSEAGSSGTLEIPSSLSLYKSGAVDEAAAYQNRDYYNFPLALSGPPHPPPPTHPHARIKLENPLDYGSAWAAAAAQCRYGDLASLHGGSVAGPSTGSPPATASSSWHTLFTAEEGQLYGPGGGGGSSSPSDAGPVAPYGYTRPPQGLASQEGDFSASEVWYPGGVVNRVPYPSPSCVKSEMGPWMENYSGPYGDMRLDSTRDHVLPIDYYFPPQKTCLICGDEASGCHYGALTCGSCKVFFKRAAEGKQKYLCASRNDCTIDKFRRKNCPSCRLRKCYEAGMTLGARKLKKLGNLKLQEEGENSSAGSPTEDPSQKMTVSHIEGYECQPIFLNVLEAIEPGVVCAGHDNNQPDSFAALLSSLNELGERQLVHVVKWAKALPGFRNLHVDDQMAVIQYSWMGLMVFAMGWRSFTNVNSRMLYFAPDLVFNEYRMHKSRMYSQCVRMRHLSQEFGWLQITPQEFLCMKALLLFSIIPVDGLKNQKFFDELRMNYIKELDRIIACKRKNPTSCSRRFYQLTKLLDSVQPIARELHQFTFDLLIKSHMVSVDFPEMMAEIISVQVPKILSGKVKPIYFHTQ
Sequence of 5-hydroxytryptamine receptor 4 (Cavia porcellus) (O70528 whole entry): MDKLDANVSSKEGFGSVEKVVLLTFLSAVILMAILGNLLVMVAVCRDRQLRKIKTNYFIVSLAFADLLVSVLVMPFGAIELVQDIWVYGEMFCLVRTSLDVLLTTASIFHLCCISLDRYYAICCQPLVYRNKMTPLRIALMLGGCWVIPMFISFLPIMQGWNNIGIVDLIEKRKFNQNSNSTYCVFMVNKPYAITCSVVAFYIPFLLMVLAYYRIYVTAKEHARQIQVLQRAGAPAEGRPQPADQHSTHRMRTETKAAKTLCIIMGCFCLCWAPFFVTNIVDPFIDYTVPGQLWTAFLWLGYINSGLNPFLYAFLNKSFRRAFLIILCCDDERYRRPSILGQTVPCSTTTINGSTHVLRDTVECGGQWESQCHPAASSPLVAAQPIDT
Sequence of Thromboxane-A synthase (Homo sapiens) (P24557 whole entry): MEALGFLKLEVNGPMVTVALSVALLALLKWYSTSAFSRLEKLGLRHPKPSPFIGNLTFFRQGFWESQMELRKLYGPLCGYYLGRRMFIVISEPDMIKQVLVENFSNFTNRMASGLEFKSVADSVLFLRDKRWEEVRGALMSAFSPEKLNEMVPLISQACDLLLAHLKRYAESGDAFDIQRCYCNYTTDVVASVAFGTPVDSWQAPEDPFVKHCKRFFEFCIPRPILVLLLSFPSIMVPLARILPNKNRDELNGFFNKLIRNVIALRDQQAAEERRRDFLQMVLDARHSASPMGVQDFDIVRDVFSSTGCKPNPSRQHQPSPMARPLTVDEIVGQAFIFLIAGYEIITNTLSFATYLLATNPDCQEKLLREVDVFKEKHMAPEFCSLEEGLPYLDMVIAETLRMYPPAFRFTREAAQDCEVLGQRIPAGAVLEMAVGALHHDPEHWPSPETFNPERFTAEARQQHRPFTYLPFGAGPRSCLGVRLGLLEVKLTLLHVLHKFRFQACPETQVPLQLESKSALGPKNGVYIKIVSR
Sequence of Platelet-activating factor receptor (Homo sapiens) (P25105 whole entry): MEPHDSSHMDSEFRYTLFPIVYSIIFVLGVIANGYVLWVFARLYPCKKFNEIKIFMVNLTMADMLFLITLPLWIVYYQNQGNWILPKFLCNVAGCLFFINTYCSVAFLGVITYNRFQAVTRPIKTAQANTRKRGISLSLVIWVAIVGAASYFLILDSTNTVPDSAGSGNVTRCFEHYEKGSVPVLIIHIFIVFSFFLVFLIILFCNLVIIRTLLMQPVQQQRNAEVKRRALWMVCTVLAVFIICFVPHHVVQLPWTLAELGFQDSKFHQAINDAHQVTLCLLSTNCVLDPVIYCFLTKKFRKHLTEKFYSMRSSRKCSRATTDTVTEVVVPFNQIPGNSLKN

CCS(=O)(=O)c1cc2cc(C[C@](O)(CC(C)(C)c3ccc(F)cc3C(N)=O)C(F)(F)F)[nH]c2cn1
inactive: inhibition [1] 12.2% | residual activity [2] 89% | residual activity [3] 94% | residual activity [4] 100% | residual activity [5] 89% | residual activity [6] 99% | residual activity [7] 79% | residual activity [8] 91% | residual activity [9] 109% | residual activity [10] 96% | residual activity [11] 115% | residual activity [12] 90% | residual activity [13] 75% | residual activity [14] 96% | residual activity [15] 85% | residual activity [16] 92% | residual activity [17] 106% | residual activity [18] 87% | residual activity [19] 85% | residual activity [20] 75% | residual activity [21] 103% | residual activity [22] 87% | residual activity [23] 98% | residual activity [24] 103% | residual activity [25] 102% | residual activity [26] 95% | residual activity [27] 81% | residual activity [28] 94% | residual activity [29] 86% | residual activity [30] 101% | residual activity [31] 93%

CCS(=O)(=O)c1cc2cc(C[C@@](O)(CC(C)(C)c3ccc(F)cc3C(N)=O)C(F)(F)F)[nH]c2cn1
inactive: inhibition [32] 2.6% | inhibition [33] -8.41% | inhibition [34] -8.85%
